Here are results for 13 compounds from ChEMBL document CHEMBL1131887, “Blockers of human T cell Kv1.3 potassium channels using de novo ligand design and solid-phase parallel combinatorial chemistry” (Bioorg Med Chem Lett, 1999).

For this assay, the target named is Potassium voltage-gated channel subfamily A member 3 (Homo sapiens, UniProt P22001). As to the kind of experiment: Displacement of [125I]- ChTX from human T cell voltage-gated potassium channel subunit Kv1.3. In kind it is cell-based.
Potassium voltage-gated channel subfamily A member 3, sequence (P22001 whole entry): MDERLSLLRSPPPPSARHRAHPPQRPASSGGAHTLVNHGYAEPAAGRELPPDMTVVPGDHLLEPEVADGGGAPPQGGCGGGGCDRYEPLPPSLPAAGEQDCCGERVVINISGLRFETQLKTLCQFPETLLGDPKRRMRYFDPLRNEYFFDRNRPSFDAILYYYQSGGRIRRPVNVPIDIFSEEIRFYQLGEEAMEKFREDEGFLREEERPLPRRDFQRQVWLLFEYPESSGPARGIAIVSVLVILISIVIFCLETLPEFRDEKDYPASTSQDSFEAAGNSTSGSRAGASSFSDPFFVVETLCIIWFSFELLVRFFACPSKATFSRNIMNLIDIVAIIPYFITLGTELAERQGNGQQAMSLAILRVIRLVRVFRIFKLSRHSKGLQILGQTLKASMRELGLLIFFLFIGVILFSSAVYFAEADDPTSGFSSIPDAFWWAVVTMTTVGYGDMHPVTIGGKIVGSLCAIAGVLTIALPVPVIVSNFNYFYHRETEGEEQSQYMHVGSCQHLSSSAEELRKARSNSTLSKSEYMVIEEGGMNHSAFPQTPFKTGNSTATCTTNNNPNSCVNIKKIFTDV

The term IC50 denotes the concentration at which inhibition is half-maximal. Lower therefore signals inhibition by little substance.

Regarding `CC(C)NC(=O)c1cc(/C=C/c2ccc(Cl)c(F)c2)ccc1-c1ccc(Cl)cc1`, the IC50 was 3.7 µM. This lies in the single-digit micromolar range.

In the case of `CCCCNC(=O)c1cc(/C=C/Cc2ccccc2)ccc1-c1ccc(Cl)cc1`, the IC50 is 6.1 µM.

Turning to `CC(C)NC(=O)c1cc(/C=C/Cc2ccccc2)ccc1-c1ccc(Cl)cc1`, the IC50 is 5.6 µM.

For `NC(N)=NNC(=O)c1cc(/C=C/c2ccc(F)cc2)ccc1-c1ccc(Cl)cc1`, the IC50 stood at 3.9 µM. This IC50 and that of the compound before are within 1.5-fold of each other.

For the compound `CC(C)NC(=O)c1cc(/C=C/c2ccc(OCc3ccccc3)cc2)ccc1-c1ccc(Cl)cc1`, the IC50 is 9.9 µM.

Consider `CCCCNC(=O)c1cc(/C=C/c2ccccc2F)ccc1-c1ccc(Cl)cc1`, for which the IC50 worked out at 8 µM.

`CCCNC(=O)c1cc(/C=C/CCc2ccccc2)ccc1-c1ccc(Cl)cc1` returned a half-maximal inhibitory concentration (IC50) of 4 µM.

`CNC(=O)c1cc(/C=C/c2ccc(OCc3ccccc3)c(OCc3ccccc3)c2)ccc1-c1ccc(Cl)cc1` came in with a 50% inhibitory concentration (IC50) of 2.9 µM.

`CC(C)NC(=O)c1cc(/C=C/c2cccc(Cl)c2)ccc1-c1ccc(Cl)cc1` displayed an IC50 of 10.1 µM.

`CCCNC(=O)c1cc(/C=C/Cc2ccccc2)ccc1-c1ccc(Cl)cc1` registered an IC50 of 5.8 µM. Compared with the last compound, the IC50 is about 1.7-fold lower.

Compound `CCNC(=O)c1cc(/C=C/CCc2ccccc2)ccc1-c1ccc(Cl)cc1` displayed a half-inhibitory concentration (IC50) of 3.2 µM. This IC50 is about 1.8-fold lower than that of the compound before.

Take `CCCNC(=O)c1cc(/C=C/c2ccc(F)cc2)ccc1-c1ccc(Cl)cc1`: the IC50 came to 9.7 µM. This IC50 lies about 3-fold higher than the previous one.

For the compound `CCCCC/N=c1\ccn(Cc2ccccc2)c2ccccc12` [CP-339818], the IC50 was found to be 0.2 µM. This IC50 is about 48-fold lower than that of the compound before.
